One block for each compound: values may come before it. Ends that are not written are not given here.
Tests used:
[1] = tested on: phosphoACC (pACC, phospho-AcetylCoA carboxylase); assay: liver ACC / phosphoACC protein expression after infusion; format: in vivo; conditions: mice fed a very high fat diet, infusion for three weeks
Source text: FIGS. 4A-4C are bar graphs showing regulation of PEPCK (4A) and ACC Protein Expression (both the phosphorylated (pACC) and unphosphorylated (ACC) forms (4B) in the presence and absence of the GLP-1(28-36) peptide, as well as the effect of the peptide on ratios of phosphorylated to unphosphorylated ACC (4C).
This is important since ACC is highly regulated in the liver and is the key enzyme responsible for the synthesis of malonyl CoA from AcetylCoA and is a precursor of fatty acid synthesis and a potent inhibitor of CPT1 (carnitine palmitoyl transferase 1), the rate limiting enzyme in the transport of fatty acids into the beta oxidation machinery of mitochondria. This means that GLP-1(28-36) is exerting an inhibition on fatty acid oxidation (beta oxidation). The increase in SCD1 expression in response to infusion of GLP-1(28-36)amide is consistent with an increase in ACC activity since SCD1 is believed to inhibit AMP kinase which is an inhibitor of ACC. The mechanism currently proposed for the prevention of weight gain by GLP-1(28-36)amide in mice fed a very high fat diet involves a dual effect of GLP-1(28-36)amide on adipose tissue to enhance lipolysis and fat burning and inhibit lipogenesis. The increased fatty acid cycling and hypertriglyceridemia enhances hepatic fatty acid oxidation with consequent coupled enhanced gluconeogenesis driven by the enhanced fat burning. […]

[2] = infusion in mice fed a very high fat diet: body weight, adipogenesis, food intake; format: in vivo; conditions: for weight gain: mice on VHFD (60% fat), continuous infusion 6.5 nanomoles/24 hrs/KgBW via osmopumps, 3 weeks
Description: (§1) Mice were placed on VHFD or a LFD control diets at 6 weeks of age. Continuous infusion of GLP-1(28-36)amide, 6.5 nanomoles/24 hrs/KgBW via osmopumps was started at ten weeks of age and was continued for 3 weeks. Body weights were measured before and during these three weeks. Values are means and S.D.s of four mice in each group.
Glucagon-like peptide-1 (GLP-1) is an insulinotropic peptide that stimulates glucose-dependent insulin secretion (Kieffer and Habener, Endocr Rev. 20(6):876-913 (1999)). […] The neutral endopeptidase, NEP 24.11 is proposed to be responsible for the degradation of GLP-1, much as the Dpp4 had been thought of as a peptide degrading enzyme for GLP-1 (Plamboeck et al., Diabetologia. 48(9):1882-90 (2005)). The carboxyl-terminal sequence of GLP-1, […]amide, GLP-1(28-36)amide, is a major peptide product of the cleavage of GLP-1 by NEP 24.11 (Hupe-Sodmann et al., Regul Pept. 58(3):149-56 (1995)). Therefore GLP-1(28-36)amide was infused into mice both fed a normal chow diet (LFD) and a very high fat diet (VHFD) for three weeks.

[3] = tested on: ACOX mRNA; assay: liver mRNA levels by QPCR in mice infused with GLP-1(28-36)amide; format: in vivo; conditions: 28-36 infusion 3 weeks; for ACOX mRNA/QPCR Fold Difference compared to LFD: normalized to LFD mice as 1.0, parentheses = down-regulation
Description: as §1
(§2) An examination of gene expression profiles in the livers of GLP-1(28-36)amide treated mice was performed. Measurements of mRNA levels by quantitative polymerase chain reaction (QPCR) in livers of mice given a very high fat diet (VHFD) or a normal low fat diet (LFD) for four weeks followed by subcutaneous osmopump infusions of either vehicle or GLP-1(28-36)amide for three additional weeks. Data in Table 2, below, show changes in mRNA levels in LFD and VHFD groups of mice comparing vehicle versus GLP-1(28-36)amide where vehicle is set at a value of 1.0. […] GLP-1(28-36)amide appears to regulate PEPCK, PPARg, CD36, SCD1, SREBP1c, FASN, and PPARa.

[4] = tested on: FASN mRNA; assay: as above; format: in vivo; conditions: 28-36 infusion 3 weeks
Description: as §1, §2

[5] = tested on: SCD-1 mRNA; assay: as above; format: in vivo
Description: as §1, §2

[6] = tested on: PGC1α mRNA; assay: as above; format: in vivo; conditions: 28-36 infusion 3 weeks
Description: as §1, §2

[7] = tested on: PPARγ mRNA; assay: as above; format: in vivo; conditions: 28-36 infusion 3 weeks; for PPARγ mRNA/QPCR Fold Difference compared to LFD: normalized to LFD mice as 1.0, parentheses = down-regulation
Description: as §1, §2

[8] = tested on: PPARα mRNA; assay: as above; format: in vivo; conditions: 28-36 infusion 3 weeks; for PPARα mRNA/QPCR Fold Difference compared to LFD: normalized to LFD mice as 1.0, parentheses = down-regulation
Description: as §1, §2

[9] = tested on: SREBP-1c mRNA; assay: as above; format: in vivo; conditions: 28-36 infusion 3 weeks; for SREBP-1c mRNA/QPCR Fold Difference compared to LFD: normalized to LFD mice as 1.0, parentheses = down-regulation
Description: as §1, §2

[10] = tested on: CPT1 mRNA; assay: as above; format: in vivo; conditions: 28-36 infusion 3 weeks; for CPT1 mRNA/QPCR Fold Difference compared to LFD: normalized to LFD mice as 1.0, parentheses = down-regulation
Description: as §1, §2

[11] = tested on: CD36 mRNA; assay: as above; format: in vivo; conditions: 28-36 infusion 3 weeks; for CD36 mRNA/QPCR Fold Difference compared to LFD: normalized to LFD mice as 1.0, parentheses = down-regulation
Description: as §1, §2

[12] = tested on: PEPCK (phosphopyruvate carboxykinase) mRNA; assay: as above; format: in vivo; conditions: 28-36 infusion 3 weeks; for PEPCK mRNA/QPCR Fold Difference compared to LFD: normalized to LFD mice as 1.0, parentheses = down-regulation
Description: as §1, §2

[13] = target: GLP-1 GPCR (Homo sapiens, UniProt P43220); conditions: (nM); cited from earlier work
Sequence of GLP-1 GPCR (P43220 24-463): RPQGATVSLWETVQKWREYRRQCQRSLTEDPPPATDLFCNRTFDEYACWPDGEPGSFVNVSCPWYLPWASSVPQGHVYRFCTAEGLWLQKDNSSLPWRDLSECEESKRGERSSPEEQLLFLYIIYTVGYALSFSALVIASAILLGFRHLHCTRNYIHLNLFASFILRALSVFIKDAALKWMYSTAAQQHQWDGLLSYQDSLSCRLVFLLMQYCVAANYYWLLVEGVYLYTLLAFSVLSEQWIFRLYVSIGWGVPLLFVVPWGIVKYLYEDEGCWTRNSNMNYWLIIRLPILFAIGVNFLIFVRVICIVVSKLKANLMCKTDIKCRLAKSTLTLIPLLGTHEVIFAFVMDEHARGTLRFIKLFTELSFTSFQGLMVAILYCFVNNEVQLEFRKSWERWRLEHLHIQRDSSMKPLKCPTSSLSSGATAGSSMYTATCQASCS

[14] = tested on: white adipocytes; conditions: Rodrigue-Way et al. 2007; cited from earlier work
[15] = tested on: 3T3-L1 adipocytes; assay: lipolysis (glycerol release) in 3T3-L1 adipocytes; format: cell-based; conditions: 1-30 nM on a background of 10 nM isoproterenol, 60 min
Description: Preliminary studies on the effect of GLP-1(9-36) on lipolysis were also performed in isolated mouse hepatocytes and 3T3-L1 adipocytes. Glycerol release into the culture medium was used as a measure of active lipolysis, and isoproterenol serves as a known stimulator of lipolysis. In these experiments GLP-1(9-36)amide was added dose-wise (1-30 nM) on a background of 10 nM isoproterenol. Incubations were for 60 min.

[16] = tested on: isolated hepatocytes; assay: hepatic gluconeogenesis in isolated hepatocytes (preliminary studies); format: cell-based; conditions: high (micromolar) concentrations
[17] = tested on: hepatic glucose production (gluconeogenesis); conditions: Elahi et al. 2008; cited from earlier work
[18] = Ban et al. 2008; cited from earlier work
[19] = high fat fed mice, infusion for three weeks
[20] = LFD mice, vehicle set at 1.0, parentheses = down-regulation
[21] = VHFD mice, VHFD vehicle set at 1.0, parentheses = down-regulation
[22] = LFD mice, normalized to LFD mice as 1.0, parentheses = down-regulation

liver phosphoACC (pACC) [1]: decrease | PEPCK mRNA/QPCR Fold Difference compared to LFD ([12]; LFD mice): 1.6 fold | PEPCK mRNA/QPCR Fold Difference compared to PEPTIDE (28-36) [12, 20]: 1.6 fold | PEPCK mRNA/QPCR Fold Difference compared to PEPTIDE (28-36) [12, 21]: 1.5 fold | PEPCK mRNA/QPCR Fold Difference compared to LFD ([12]; VHFD mice): 1.6 fold
Compound: FIAWLVKGR-NH2 [28-36]
adipogenesis [2, 19]: completely prevented | food intake [2, 19]: without observable differences | weight gain ([2]; listed as GLP-1(28-36)): attenuates weight gain | weight gain ([2]; listed as GLP-1(28-36)amide): completely prevented | ACOX mRNA/QPCR Fold Difference compared to LFD ([3]; LFD mice): 1.4 fold | ACOX mRNA/QPCR Fold Difference compared to PEPTIDE (28-36) [3, 20]: 1.4 fold | ACOX mRNA/QPCR Fold Difference compared to PEPTIDE (28-36) [3, 21]: 1.04 fold | ACOX mRNA/QPCR Fold Difference compared to LFD ([3]; VHFD mice): 1.2 fold | FASN mRNA/QPCR Fold Difference compared to LFD [4, 22]: 1 fold | FASN mRNA/QPCR Fold Difference compared to PEPTIDE (28-36) [4, 20]: 1 fold | FASN mRNA/QPCR Fold Difference compared to PEPTIDE (28-36) [4, 21]: 1.2 fold | SCD1 expression ([5]; in response to infusion of GLP-1(28-36)amide): increase | SCD-1 mRNA/QPCR Fold Difference compared to PEPTIDE (28-36) ([5]; liver, VHFD mice, 28-36 infusion 3 weeks, VHFD vehicle set at 1.0, parentheses = down-regulation): 3.05 fold | PGC1α mRNA/QPCR Fold Difference compared to LFD [6, 22]: 1.35 fold | PGC1α mRNA/QPCR Fold Difference compared to PEPTIDE (28-36) [6, 20]: 1.4 fold | PGC1α mRNA/QPCR Fold Difference compared to PEPTIDE (28-36) [6, 21]: 1.2 fold | PPARγ mRNA/QPCR Fold Difference compared to LFD ([7]; LFD mice): 1.54 fold | PPARγ mRNA/QPCR Fold Difference compared to PEPTIDE (28-36) [7, 20]: 1.54 fold | PPARγ mRNA/QPCR Fold Difference compared to PEPTIDE (28-36) [7, 21]: 1.4 fold | PPARγ mRNA/QPCR Fold Difference compared to LFD ([7]; VHFD mice): 2.2 fold | PPARα mRNA/QPCR Fold Difference compared to LFD ([8]; LFD mice): 1.2 fold | PPARα mRNA/QPCR Fold Difference compared to PEPTIDE (28-36) [8, 20]: 1.2 fold | PPARα mRNA/QPCR Fold Difference compared to PEPTIDE (28-36) [8, 21]: 1.35 fold | PPARα mRNA/QPCR Fold Difference compared to LFD ([8]; VHFD mice): 1.9 fold | SREBP-1c mRNA/QPCR Fold Difference compared to LFD ([9]; LFD mice): 1 fold | SREBP-1c mRNA/QPCR Fold Difference compared to PEPTIDE (28-36) [9, 20]: 1.1 fold | SREBP-1c mRNA/QPCR Fold Difference compared to PEPTIDE (28-36) [9, 21]: 1.3 fold | SREBP-1c mRNA/QPCR Fold Difference compared to LFD ([9]; VHFD mice): 1 fold | CPT1 mRNA/QPCR Fold Difference compared to LFD ([10]; LFD mice): 1.2 fold | CPT1 mRNA/QPCR Fold Difference compared to PEPTIDE (28-36) [10, 20]: 1.21 fold | CPT1 mRNA/QPCR Fold Difference compared to PEPTIDE (28-36) [10, 21]: 1.02 fold | CPT1 mRNA/QPCR Fold Difference compared to LFD ([10]; VHFD mice): 1.74 fold | CD36 mRNA/QPCR Fold Difference compared to LFD ([11]; LFD mice): 1.25 fold | CD36 mRNA/QPCR Fold Difference compared to PEPTIDE (28-36) [11, 20]: 1.25 fold | CD36 mRNA/QPCR Fold Difference compared to PEPTIDE (28-36) [11, 21]: 1.7 fold | CD36 mRNA/QPCR Fold Difference compared to LFD ([11]; VHFD mice): 1.7 fold

Compound: exendin-4
binding affinity to the GLP-1 GPCR [13]: high affinity

Compound: Cc1[nH]c2ccccc2c1C[C@@H](NC(=O)[C@@H](N)Cc1cnc[nH]1)C(=O)N[C@@H](C)C(=O)N[C@@H](Cc1c[nH]c2ccccc12)C(=O)N[C@H](Cc1ccccc1)C(=O)N[C@@H](CCCCN)C(N)=O [hexarelin, H-W(Me)-A-W-F-Kamide]
mitochondrial biogenesis and fat burning phenotype [14]: promote mitochondrial biogenesis and a fat burning phenotype

Compound: GLP-1(9-36)amide
lipolysis (glycerol release into the culture medium) [15]: stimulates lipolysis in 3T3-L1 adipocytes in a dose dependent manner | actions on hepatic gluconeogenesis [16]: only weak actions | hepatic glucose production (gluconeogenesis) [17]: inhibits | cardioprotective actions [18]: exerts cardioprotective actions

Source: US10118955B2, “C-terminal fragments of glucagon-like peptide-1 (GLP-1)” (The General Hospital Corporation, priority 2008, dated 2018)
